Laboratory results taken from patent US20110082182A1, “THERAPEUTIC ANTIVIRAL PEPTIDES” (INTERMUNE, INC., priority 2009, published 2011).

Key:
[1] = target: T1, NS3/NS4A-2 (full-length HCV NS3 protease) (Hepatitis C virus genotype 1a, UniProt P27958); assay: NS3 Inhibition Assay (NS3-NS4 protease assay, RETS1 substrate, fluorescence kinetic read); assay type: biochemical; settings: NS3/NS4A-2 protease
T1 construct: Recombinant E. coli or Baculovirus full-length NS3 was diluted to 3.33 μM with assay buffer; made in house; host or cells: E. coli or baculovirus (BV) expression
Protocol: NS3 Complex Formation with NS4A-2.
Recombinant E. coli or Baculovirus full-length NS3 was diluted to 3.33 μM with assay buffer and the material was transferred to an eppendorf tube and placed in a water bath in a 4° C. refrigerator. The appropriate amount of NS4A-2 diluted to 8.3 mM in assay buffer was added to an equal the volume of NS3 above (conversion factor—3.8 mg/272 μL assay buffer). The material was transferred to an eppendorf tube and placed in water bath in a 4° C. refrigerator.
After equilibration to 4° C., equal volumes of NS3 and NS4A-2 solutions were combined in an eppendorf tube, mixed gently with a manual pipettor, and incubated for 15 minutes in the 4° C. water bath. Final concentrations in the mixture are 1.67 μM NS3, 4.15 mM NS4A-2 (2485-fold molar excess NS4A-2).
After 15 minutes at 4° C., the NS3/NS4A-2 eppendorf tube was removed and placed in a room temperature water bath for 10 minutes. NS3/NS4A-2 was aliquoted at appropriate volumes and stored at −80° C. (E. coli NS3 run at 2 nM in assay, aliquot at 25 μL. BV NS3 run at 3 nM in assay, aliquot at 30 μL).
Step a. Sample compounds were dissolved to 10 mM in DMSO then diluted to 2.5 mM (1:4) in DMSO. Typically, compounds were added to an assay plate at 2.5 mM concentration, yielding upon dilution a starting concentration of 50 μM in the assay inhibition curve. Compounds were serial diluted in assay buffer to provide test solutions at lower concentrations.
Step 1. The E. coli. NS3/NS4A-2 was diluted to 4 nM NS3 (1:417.5 of 1.67 μM stock−18 μL 1.67 μM stock+7497 μL assay buffer). […]
The plate was read in kinetic mode on the Molecular Devices SpectraMax Gemini XS plate reader. Reader settings: Read time: 30 minutes, Interval: 36 seconds, Reads: 51, Excitation λ: 335 nm, Emission λ: 495 nm, cutoff: 475 nm, Automix: off, Calibrate: once, PMT: high, Reads/well: 6, Vmax pts: 21 or 28/51 depending on length of linearity of reaction
IC50s are determined using a four parameter curve fit equation, and converted to Ki's using the following Km's: […]

[2] = system: HCV sub-genomic replicon (I377/NS3-3') in HuH-7 hepatoma cells (GS4.3); assay: Quantitation by ELISA of NPTII in the HCV sub-genomic replicon, GS4.3; assay type: cell-based; settings: Hepatitis C virus, GS4.3 replicon cells, 72 h
Source text: Quantitation by ELISA of the Selectable Marker Protein, Neomycin Phosphotransferase II (NPTII) in the HCV Sub-Genomic Replicon, GS4.3
The HCV sub-genomic replicon (I377/NS3-3′, accession No. AJ242652), stably maintained in HuH-7 hepatoma cells, was created by Lohmann et al. Science 285: 110-113 (1999). The replicon-containing cell culture, designated GS4.3, was obtained from Dr. Christoph Seeger of the Institute for Cancer Research, Fox Chase Cancer Center, Philadelphia, Pa.
GS4.3 cells were maintained at 37° C., 5%CO2, in DMEM (Gibco 11965-092) supplemented with L-glutamine 200 mM (100×) (Gibco25030-081), non-essential amino acids (NEAA) (Biowhittaker 13-114E), heat-inactivated (HI) Fetal Bovine Serum (FBS) (Hyclone SH3007.03) and 750 μg/mL geneticin (G418) (Gibco 10131-035). Cells were sub-divided 1:3 or 4 every 2-3 days.
24 h prior to the assay, GS4.3 cells were collected, counted, and plated in 96-well plates (Costar 3585) at 7500 cells/well in 100 μL standard maintenance medium (above) and incubated in the conditions above. To initiate the assay, culture medium was removed, cells were washed once with PBS (Gibco 10010-023) and 90 μl Assay Medium (DMEM, L-glutamine, NEAA, 10% HI FBS, no G418) was added. Inhibitors were made as a 10× stock in Assay Medium, (3-fold dilutions from 10 μM to 56 pM final concentration, final DMSO concentration 1%), 10 μL were added to duplicate wells, plates were rocked to mix, and incubated as above for 72 h.
An NPTII Elisa kit was obtained from AGDIA, Inc. (Compound direct ELISA test system for Neomycin Phosphotransferase II, PSP 73000/4800). Manufacturer's instructions were followed, with some modifications. 10× PEB-1 lysis buffer was made up to include 500 μM PMSF (Sigma P7626, 50 mM stock in isopropanol). […] Plates were read at 450 nm on a Molecular Devices Versamax plate reader.
Inhibitor effect was expressed as a percentage of DMSO-treated control signal, and inhibition curves were calculated using a 4-parameter equation: y=A+4B−A)/(1+((C/x)̂C))), where C is half-maximal activity or EC50.

T1 sequence (P27958 1027-1657): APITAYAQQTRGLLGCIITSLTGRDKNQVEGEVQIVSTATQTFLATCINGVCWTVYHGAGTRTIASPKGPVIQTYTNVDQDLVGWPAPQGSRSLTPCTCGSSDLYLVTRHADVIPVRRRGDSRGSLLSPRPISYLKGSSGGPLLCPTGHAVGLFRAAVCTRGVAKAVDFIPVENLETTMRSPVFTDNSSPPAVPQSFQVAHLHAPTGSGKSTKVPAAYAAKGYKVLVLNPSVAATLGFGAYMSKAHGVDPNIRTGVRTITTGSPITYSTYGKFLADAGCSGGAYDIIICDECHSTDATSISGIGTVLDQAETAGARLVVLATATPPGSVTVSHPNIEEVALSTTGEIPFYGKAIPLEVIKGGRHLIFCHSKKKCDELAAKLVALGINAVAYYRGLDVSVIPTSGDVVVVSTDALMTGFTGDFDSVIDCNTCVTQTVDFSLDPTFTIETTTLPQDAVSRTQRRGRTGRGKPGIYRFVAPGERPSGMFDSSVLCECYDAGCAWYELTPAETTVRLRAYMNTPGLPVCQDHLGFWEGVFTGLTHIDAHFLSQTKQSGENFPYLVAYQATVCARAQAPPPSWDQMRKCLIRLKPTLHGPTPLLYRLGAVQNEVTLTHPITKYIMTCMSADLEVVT

| Structure (SMILES) | IC50 [1] | EC50 [2] |
| --- | --- | --- |
| CC[C@@H]1C[C@@]12NC(=O)[C@@H]1C[C@H](CN1C(=O)[C@@H](NC(=O)OC(C)(C)C)C(C)(C)C)Oc1nc3ccccc3n1C/C=C\CCCC1(CC1)S(=O)(=O)NC2=O [Compound 1] | < 100 nM | > 1000 nM |
| CC[C@@H]1C[C@@]12NC(=O)[C@@H]1C[C@H](CN1C(=O)[C@@H](NC(=O)OC(C)(C)C)C(C)(C)C)Oc1nc3ccccc3n1CCCCCCCC1(CC1)S(=O)(=O)NC2=O [Compound 6] | 100 to 1000 nM | > 1000 nM |
| CC[C@@H]1C[C@@]12NC(=O)[C@@H]1C[C@H](CN1C(=O)[C@@H](NC(=O)OC(C)(C)C)C(C)(C)C)Oc1nc3ccccc3n1CCC/C=C\CCC1(CC1)S(=O)(=O)NC2=O [Compound 5] | < 100 nM | > 1000 nM |
